Consider five compounds from US4902709A, “Novel antihypercholesterolemic compounds” (Merck & Co., Inc., priority 1988, dated 1990).

By IC50 is commonly meant the concentration at which inhibition is half-maximal. High values mean weaker potency in that assay, low ones greater potency in that assay.

In the assay the target is T1, HMG-CoA reductase (Rattus norvegicus, UniProt P51639).
T1 sequence (P51639 1-887): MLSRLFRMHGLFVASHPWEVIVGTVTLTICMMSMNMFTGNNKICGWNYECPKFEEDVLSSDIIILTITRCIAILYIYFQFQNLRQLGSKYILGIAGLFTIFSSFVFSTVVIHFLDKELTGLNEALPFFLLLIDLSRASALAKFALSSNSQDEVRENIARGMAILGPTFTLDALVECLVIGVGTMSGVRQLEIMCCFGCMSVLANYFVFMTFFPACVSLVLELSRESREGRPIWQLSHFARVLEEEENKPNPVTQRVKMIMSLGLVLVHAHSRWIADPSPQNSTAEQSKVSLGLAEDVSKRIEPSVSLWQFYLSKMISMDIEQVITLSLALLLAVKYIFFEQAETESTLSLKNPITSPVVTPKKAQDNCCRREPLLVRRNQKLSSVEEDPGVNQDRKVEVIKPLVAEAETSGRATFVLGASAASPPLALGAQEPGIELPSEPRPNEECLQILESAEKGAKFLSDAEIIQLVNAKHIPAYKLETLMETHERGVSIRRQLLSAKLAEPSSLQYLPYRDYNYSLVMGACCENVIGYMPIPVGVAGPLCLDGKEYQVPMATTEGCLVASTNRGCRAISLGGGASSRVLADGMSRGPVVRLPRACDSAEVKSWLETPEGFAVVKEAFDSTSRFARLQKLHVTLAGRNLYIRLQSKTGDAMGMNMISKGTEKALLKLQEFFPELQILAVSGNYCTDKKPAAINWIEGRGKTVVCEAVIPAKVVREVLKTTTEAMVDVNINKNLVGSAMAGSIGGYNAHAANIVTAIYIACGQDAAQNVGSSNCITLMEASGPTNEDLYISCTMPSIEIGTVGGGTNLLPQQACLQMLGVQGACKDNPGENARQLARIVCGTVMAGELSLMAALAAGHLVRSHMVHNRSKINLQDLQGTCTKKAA
As to the kind of experiment: intrinsic HMG-CoA reductase inhibition (in vitro procedure detailed in U.S. Pat. No. 4,668,699). The format is biochemical. The conditions noted are these: 2,4 dichloro derivatives of formula I.
Consider `O=C1C[C@@H](c2ccccc2)C[C@H](CCc2ccc(Cl)cc2Cl)O1` (relative stereo) [Example 1, trans-6-[2-(2,4-dichlorophenyl)ethyl]-3,4,5,6-tetrahydro-4-phenyl-2H-pyran-2-one], for which the IC50 is 21 µM.

`COc1ccc([C@@H]2CC(=O)O[C@@H](CCc3ccc(Cl)cc3Cl)C2)cc1` (relative stereo) [Example 4] returned an IC50 of 43.5 µM.

`O=C1C[C@H](c2ccc(-c3ccccc3)cc2)C[C@@H](CCc2ccc(Cl)cc2Cl)O1` (relative stereo) [Example 2] registered a concentration for half-maximal inhibition (IC50) of 33.6 µM.

Take `O=C1C[C@@H](c2ccc(O)cc2)C[C@H](CCc2ccc(Cl)cc2Cl)O1` (relative stereo) [Example 5]: the IC50 came out at 20.8 µM.

In the case of `O=C1C[C@@H](c2ccccc2CO)C[C@H](CCc2ccc(Cl)cc2Cl)O1` (relative stereo) [Example 8], inhibition was half-maximal at 42 µM (IC50).
